Test results as given in PMC9947563, “Identification of the molecular determinants of antagonist potency in the allosteric binding pocket of human P2X4” (Frontiers in Pharmacology, 2023).

How the values were obtained:
human P2X4 open channel = tested on: human P2X4 open channel; design: method as in Bidula et al. (2022); settings: ref Bidula et al. (2022); cited from earlier work
[1] = target: T1, rat P2X4 wild type (r4-WT) (Rattus norvegicus, UniProt P51577); assay: ATP-induced calcium influx (Fluo-4) in 1321N1 cells stably expressing rat P2X4 wild type; type: cell-based
T1 construct: expressed in transfected cells; host or cells: 1321N1 astrocytoma cells, stably transfected
T1 sequence (P51577 1-388): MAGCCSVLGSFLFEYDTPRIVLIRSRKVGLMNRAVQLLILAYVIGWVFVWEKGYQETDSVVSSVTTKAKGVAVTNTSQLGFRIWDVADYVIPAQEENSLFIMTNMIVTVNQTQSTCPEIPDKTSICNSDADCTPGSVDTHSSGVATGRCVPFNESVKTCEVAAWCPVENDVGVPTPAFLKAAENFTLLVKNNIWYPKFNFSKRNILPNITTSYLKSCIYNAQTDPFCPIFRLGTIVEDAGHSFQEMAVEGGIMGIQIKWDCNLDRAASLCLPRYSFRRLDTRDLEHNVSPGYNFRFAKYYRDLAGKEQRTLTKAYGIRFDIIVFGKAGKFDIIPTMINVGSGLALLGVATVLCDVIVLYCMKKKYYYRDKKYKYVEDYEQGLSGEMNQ
Procedure: 1321N1 astrocytoma cells were cultured (at 37°C, 5% CO2) in Dulbecco’s modified Eagle’s medium (DMEM/F-12 with Glutamax) supplemented with 10% foetal bovine serum (FBS) and 200 unit/mL of penicillin and streptomycin antibiotics (Fisher Scientific). Stably transfected clones were grown in DMEM/F-12 with Glutamax medium supplemented with G-418 (Geneticin®, Fisher Scientific), 600 μg/mL and 150 μg/mL during selection and maintenance, respectively. FuGene HD Transfection Reagent (Promega) was used according to the manufacturer’s protocol for the generation of stable cell line expressing h4-WT, r4-WT, h4-I312T, and r4-T312I. Each cell line was then tested for P2X4 receptor expression by Western blot and for functionality using the Ca^2+ influx assay.
(§1) Cells were plated the day before assay into poly-lysine-coated 96-well plates at 40–55,000 cells/mL. To load cells with calcium-sensitive fluorescent dye, culture medium was replaced with modified Ringer’s buffer (140 mM NaCl, 10 mM HEPES, 10 mM Glucose, 1 mM MgCl2, 1 mM CaCl2, 2.5 mM KCl, 0.5% BSA, pH = 7.4) containing 2.6 μM FLUO4-AM (Fisher Scientific) and 250 μM probenecid (Sigma), and cells were incubated for 20–30 min. Prior to assay, buffer was replaced with fresh modified Ringer’s buffer containing probenecid but not the dye. […] A Fluoroskan Ascent FL plate reader (Fisher Scientific) equipped with a solution dispenser and an appropriate filter pair (excitation: 485 nm, emission: 538 nm) was used to record 5-s baseline followed by P2X4-mediated calcium influx measurements for 20–25 s after ATP stimulation (final concentration ranging between 0.03 and 100 μM in buffered solution, pH = 7.4). The collected responses were normalized to the first data-point recorded after ATP injection.
Data processing and data analysis were carried out using Graphpad Prism version 6 for Mac. Figures are presented as Mean ± SEM. Statistical significance of any difference observed between samples was calculated through one-way ANOVA followed by Dunnett’s multiple comparisons test with a single pooled variance (control, unless otherwise specified) or, when comparing only two sets of data, using an unpaired t-test with Welch’s correction. When comparing data obtained from multiple independent experiments (N), each dataset was normalized to the mean value obtained for the vehicle control.

mP2X4 = settings: ref Ase et al. (2015); read-out: mP2X4 IC50; cited from earlier work
[2] = target: T2, human P2X4 I312T (h4-I312T) (Homo sapiens, UniProt Q99571, I312T); assay: ATP-induced calcium influx (Fluo-4) in 1321N1 cells stably expressing human P2X4 I312T; type: cell-based
T2 construct: expressed in transfected cells; host or cells: 1321N1 astrocytoma cells, stably transfected
T2 sequence (Q99571 1-388 I312T): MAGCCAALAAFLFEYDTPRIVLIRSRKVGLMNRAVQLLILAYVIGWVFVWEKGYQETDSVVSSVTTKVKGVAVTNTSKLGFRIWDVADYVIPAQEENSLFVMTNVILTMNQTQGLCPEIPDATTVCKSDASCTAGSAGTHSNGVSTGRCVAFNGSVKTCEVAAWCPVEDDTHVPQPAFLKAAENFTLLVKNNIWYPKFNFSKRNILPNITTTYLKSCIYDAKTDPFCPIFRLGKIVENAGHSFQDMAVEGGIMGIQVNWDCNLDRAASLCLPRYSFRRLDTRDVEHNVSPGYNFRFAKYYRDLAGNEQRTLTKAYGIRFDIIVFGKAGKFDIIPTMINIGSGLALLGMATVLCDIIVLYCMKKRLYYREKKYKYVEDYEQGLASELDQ
Procedure: Plasmid encoding rat P2X4 (r4-WT) ([Royle et al., 2005]) was a kind gift from Ruth Murrell-Lagnado, whilst that encoding human P2X4 with a C-terminal (His)10 tag has been reported previously ([Young et al., 2008]).
1321N1 astrocytoma cells were cultured (at 37°C, 5% CO2) in Dulbecco’s modified Eagle’s medium (DMEM/F-12 with Glutamax) supplemented with 10% foetal bovine serum (FBS) and 200 unit/mL of penicillin and streptomycin antibiotics (Fisher Scientific). Stably transfected clones were grown in DMEM/F-12 with Glutamax medium supplemented with G-418 (Geneticin®, Fisher Scientific), 600 μg/mL and 150 μg/mL during selection and maintenance, respectively. […] Each cell line was then tested for P2X4 receptor expression by Western blot and for functionality using the Ca^2+ influx assay.
as §1, with “To load cells with calcium-sensitive fluorescent dye, culture medium was replaced with modified Ringer’s buffer (140 mM NaCl, 10 mM HEPES, 10 mM Glucose, 1 mM MgCl2, 1 mM CaCl2, 2.5 mM KCl, 0.5% BSA, pH = 7.4) containing 2.6 μM FLUO4-AM (Fisher Scientific) and 250 μM probenecid (Sigma), and cells were incubated for 20–30 min.” left out
Data processing and data analysis were carried out using Graphpad Prism version 6 for Mac. Figures are presented as Mean ± SEM. […] When comparing data obtained from multiple independent experiments (N), each dataset was normalized to the mean value obtained for the vehicle control.

rP2X4 = settings: ref Ase et al. (2015); cited from earlier work

CC(C)c1cc(Br)c(NC(=O)Nc2cccnc2)c(Br)c1 [BX430]
capability of blocking the open channel (human P2X4 open channel): capable of blocking the open channel | IC50 [1]: 66.1 µM | Hill coefficient (BX-430 inhibition curve) ([1]; rat P2X4 WT, 1 µM ATP): 1.441 | IC50 (mP2X4): > 10 µM | decrease in BX-430 potency by I312T mutation in human P2X4 ([2]; human P2X4 I312T vs human P2X4 WT): > 48 fold | Hill coefficient (BX-430 inhibition curve) ([2]; human P2X4 I312T, 1 µM ATP): 2.057 | IC50 (rP2X4): > 10 µM
